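These data come from cells grown in 96-well plates and exposed to compound for 48 hours at five concentrations. Here, GI50 denotes the concentration required for 50% inhibition of growth. TGI is the concentration that stops growth completely.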
What was measured:
Test in all cases: NCI anticancer screen, dose series, 48 h
MDA-N = system: MDA-N
HS 578T breast = system: HS 578T breast
DMS 114 small cell lung = system: DMS 114 small cell lung
DMS 273 small cell lung = system: DMS 273 small cell lung
RXF-631 renal = system: RXF-631 renal
DLD-1 colon = system: DLD-1 colon
M19-MEL melanoma = system: M19-MEL melanoma
HOP-18 NSCLC = system: HOP-18 NSCLC
XF 498 CNS = system: XF 498 CNS

CN1CCCC1c1cccnc1.O=C(O)c1ccccc1O.O=C([O-])c1ccccc1[OH2+].O=C([O-])c1ccccc1[OH2+].O=C([O-])c1ccccc1[OH2+].[Mn+2] (centres undefined)
GI50 (MDA-N): > 100 µM
TGI (MDA-N): > 100 µM
GI50 (HS 578T breast): 2.43 µM
TGI (HS 578T breast): > 100 µM

Brc1ccc2c(c1)C1(c3cc(Br)ccc3-2)c2cc(Br)ccc2-c2ccc(Br)cc21
TGI (DMS 114 small cell lung): > 100 µM
TGI (DMS 273 small cell lung): > 100 µM
TGI (RXF-631 renal): > 100 µM
TGI (DLD-1 colon): > 100 µM
TGI (M19-MEL melanoma): > 100 µM
TGI (HOP-18 NSCLC): > 100 µM
TGI (XF 498 CNS): > 100 µM

O=C(CCCCCCCCCCc1ccccc1)c1c(O)cccc1O
TGI (DMS 114 small cell lung): 45.3 µM
TGI (DMS 273 small cell lung): 34 µM
TGI (RXF-631 renal): 85.4 µM
TGI (DLD-1 colon): 39.7 µM
TGI (M19-MEL melanoma): 42.7 µM
TGI (HOP-18 NSCLC): 67.5 µM
TGI (XF 498 CNS): 40.1 µM

CC(CC(=O)O)(CC(=O)O)C(=O)O
TGI (MDA-N): > 100 µM
TGI (HS 578T breast): > 100 µM

O=C1OCC(C(=O)c2cccc(O)c2)C1=O (centres undefined)
TGI (DMS 114 small cell lung): > 100 µM
TGI (DMS 273 small cell lung): > 100 µM
TGI (RXF-631 renal): > 100 µM
TGI (DLD-1 colon): > 100 µM
TGI (M19-MEL melanoma): > 100 µM
TGI (HOP-18 NSCLC): > 100 µM

CC1(CC(=O)O)OC2CCCCCC2O1 (centres undefined) (tested in a mixture with another compound)
TGI (MDA-N): > 100 µM
TGI (HS 578T breast): > 100 µM

COc1cc2ccn3c4cc(OC)c(OC)cc4cc3c2cc1OC
TGI (DMS 114 small cell lung): > 100 µM
TGI (DLD-1 colon): > 100 µM
TGI (M19-MEL melanoma): > 100 µM
TGI (XF 498 CNS): > 100 µM

COc1c(O)c(OC)c(C(=O)/C=C/c2ccccc2)c(O)c1OC
TGI (MDA-N): 46 µM
TGI (HS 578T breast): > 100 µM

Cn1c(=O)c2c3oc(=O)cc(O)c3c(=O)n3c4ccccc4n(c1=O)c23
TGI (DMS 273 small cell lung): > 100 µM
TGI (RXF-631 renal): > 100 µM
TGI (DLD-1 colon): > 100 µM
TGI (M19-MEL melanoma): > 100 µM
TGI (HOP-18 NSCLC): > 100 µM
TGI (XF 498 CNS): 68 µM

O=C(CCCCCCCCC(=O)OCC1OC(n2cnc3c(=O)[nH]cnc32)C(O)C1O)OCC1OC(n2cnc3c(=O)[nH]cnc32)C(O)C1O (centres undefined)
TGI (DMS 114 small cell lung): > 100 µM
TGI (DMS 273 small cell lung): > 100 µM
TGI (DLD-1 colon): > 100 µM
TGI (M19-MEL melanoma): > 100 µM
TGI (HOP-18 NSCLC): > 100 µM
TGI (XF 498 CNS): > 100 µM

N#Cc1c2c(c(N=[N+]=[N-])n3c1nc1ccccc13)CCCC2
TGI (DMS 114 small cell lung): 4.37 µM
TGI (DMS 273 small cell lung): 6.52 µM
TGI (DLD-1 colon): 2.94 µM
TGI (M19-MEL melanoma): 6.1 µM
TGI (XF 498 CNS): 3.13 µM

Cc1ccc(NCSc2ccc(Cl)cc2)cc1
GI50 (HS 578T breast): 24.7 µM
TGI (HS 578T breast): > 100 µM

O=c1oc(-c2ccc(O)c(O)c2)cc2cc(O)cc(O)c12
GI50 (HS 578T breast): 39.5 µM
TGI (HS 578T breast): 94.4 µM

COc1ccccc1Cn1cc2c(c1)-c1oncc1CC2
GI50 (HS 578T breast): 0.384 µM
TGI (HS 578T breast): 3.03 µM

COc1cc[nH]c1/C=C1\C(=O)Nc2ccc(F)c(C#CC3(O)CCOCC3)c21
GI50 (HS 578T breast): 0.528 µM
TGI (HS 578T breast): 3.56 µM

COC(=O)/C(=N\NC(=O)c1ccccc1O)C(C#N)c1ccc(Cl)cc1 (centres undefined)
TGI (DMS 114 small cell lung): > 100 µM
TGI (RXF-631 renal): > 100 µM
TGI (DLD-1 colon): > 100 µM
TGI (M19-MEL melanoma): > 100 µM
TGI (HOP-18 NSCLC): > 100 µM

CC[C@]12C=CCN3CC[C@]4(C(=C(C(=O)OC)C1)Nc1cc(O)ccc14)[C@@H]32
GI50 (HS 578T breast): 15.5 µM
TGI (HS 578T breast): 58.1 µM

O=C1OC(c2ccc(O)cc2)(c2ccc(O)cc2)c2cccc3cccc1c23
GI50 (HS 578T breast): 0.249 µM
TGI (HS 578T breast): 20.9 µM

S=C(Nc1ccccc1)Nc1[nH]c(=S)sc1-c1nc2ccccc2[nH]1
TGI (DMS 273 small cell lung): > 100 µM
TGI (RXF-631 renal): > 100 µM
TGI (DLD-1 colon): > 100 µM
TGI (M19-MEL melanoma): > 100 µM
TGI (HOP-18 NSCLC): > 100 µM

CCOC(=O)c1[nH]c2c(c1C)-c1[nH]c(=O)c(S(=O)(=O)c3ccccc3)cc1SC2
GI50 (HS 578T breast): 24.7 µM
TGI (HS 578T breast): 94 µM

COC(=O)/C(C#N)=C1\N=NNN1CCCN1CCOCC1
TGI (DMS 114 small cell lung): > 100 µM
TGI (DMS 273 small cell lung): > 100 µM
TGI (DLD-1 colon): > 100 µM
TGI (M19-MEL melanoma): > 100 µM
TGI (HOP-18 NSCLC): > 100 µM

c1ccc(SCCCC(Sc2ccccc2)Sc2ccccc2)cc1
TGI (DMS 114 small cell lung): > 100 µM
TGI (DMS 273 small cell lung): > 100 µM
TGI (DLD-1 colon): > 100 µM
TGI (M19-MEL melanoma): > 100 µM
TGI (XF 498 CNS): > 100 µM

COc1cc(C2C3=C(COC3=O)N(CCO)c3cc4c(cc32)CCC4)cc(OC)c1O (centres undefined)
GI50 (HS 578T breast): 0.106 µM
TGI (HS 578T breast): 11.4 µM

CC(CS(=O)(=O)Cc1ccccc1)C(N)=O (centres undefined)
TGI (MDA-N): > 100 µM
TGI (HS 578T breast): > 100 µM

NC(Cc1nn[nH]n1)C(=O)O (centres undefined)
TGI (MDA-N): > 100 µM
TGI (HS 578T breast): > 100 µM

Cc1c(C(C)C)cc(OCCO)cc1C(C)C
TGI (MDA-N): > 100 µM
TGI (HS 578T breast): 93.3 µM

CC1=CC2=C(C)C3(CC3)[C@@](C)(O)C(=O)C2=C1
TGI (DMS 114 small cell lung): 0.313 µM
TGI (DMS 273 small cell lung): 0.696 µM
TGI (DLD-1 colon): > 0.935 µM
TGI (M19-MEL melanoma): 0.732 µM
TGI (HOP-18 NSCLC): 0.528 µM
TGI (XF 498 CNS): 0.341 µM

O=c1c2ccccc2nc(-c2ccccc2)n1NCC1(O)OCC(O)C(O)C1O (centres undefined)
TGI (DMS 114 small cell lung): > 100 µM
TGI (DMS 273 small cell lung): > 100 µM
TGI (DLD-1 colon): > 100 µM
TGI (M19-MEL melanoma): > 100 µM
TGI (HOP-18 NSCLC): > 100 µM

CN1CC2(CCCCC2)C(O)C12C=CCCC2 (centres undefined)
TGI (DMS 114 small cell lung): > 100 µM
TGI (DMS 273 small cell lung): > 100 µM
TGI (DLD-1 colon): > 100 µM
TGI (M19-MEL melanoma): > 100 µM
TGI (XF 498 CNS): > 100 µM

O=C(N[C@@H]1CCCc2ccccc21)[C@H](CCC(=O)N1CCN(C2CCCCC2)CC1)N1C(=O)[C@@H](N2C(=O)OC[C@@H]2c2ccccc2)[C@H]1/C=C/c1ccccc1
GI50 (HS 578T breast): 3.52 µM
TGI (HS 578T breast): 21.1 µM

CCOC(=O)c1cnc2[nH]c(=O)c3ccccc3n2c1=O
TGI (DMS 273 small cell lung): > 100 µM
TGI (RXF-631 renal): > 100 µM
TGI (DLD-1 colon): > 100 µM
TGI (M19-MEL melanoma): > 100 µM
TGI (HOP-18 NSCLC): > 100 µM
TGI (XF 498 CNS): > 100 µM

Cc1nnc2n1N=C(CC(=O)c1ccc(O)cc1O)CN2N
TGI (DMS 114 small cell lung): 40 µM
TGI (DMS 273 small cell lung): > 100 µM
TGI (RXF-631 renal): > 100 µM
TGI (DLD-1 colon): > 100 µM
TGI (M19-MEL melanoma): > 100 µM

Oc1cccc(-c2nc3ccccc3s2)c1
TGI (MDA-N): 98.7 µM
TGI (HS 578T breast): 44.4 µM

CC(C)OP(=O)(CP(=O)(OC(C)C)OC(C)C)OC(C)C.[CH3][Sn]([Br])([Br])[Br]
GI50 (DMS 114 small cell lung): > 100 µM
TGI (DMS 114 small cell lung): > 100 µM
GI50 (DMS 273 small cell lung): > 100 µM
TGI (DMS 273 small cell lung): > 100 µM
GI50 (RXF-631 renal): > 100 µM
TGI (RXF-631 renal): > 100 µM
GI50 (DLD-1 colon): > 100 µM
TGI (DLD-1 colon): > 100 µM
GI50 (M19-MEL melanoma): > 100 µM
TGI (M19-MEL melanoma): > 100 µM
GI50 (HOP-18 NSCLC): > 100 µM
TGI (HOP-18 NSCLC): > 100 µM

COC(=O)c1c(C)oc2ccc(OC(C)=O)cc12
TGI (DMS 114 small cell lung): > 100 µM
TGI (DMS 273 small cell lung): > 100 µM
TGI (M19-MEL melanoma): > 100 µM

From PubChem BioAssay (NCI)
